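Dose response: 5 concentrations. Exposure: 48 h. Format: 96-well plates. Endpoint: linear interpolation; highest concentration if not reached. TGI marks complete inhibition of growth.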 Bounds are passed on as bounds.

For the first experiment, the system named is SF-268 CNS. The experiment can be described thus: inhibition of tumour cell growth, NCI panel, 48 h.
On to `Nc1nc2ccc(NCc3ccc(C(=O)NC(CCC(=O)O)C(=O)O)cc3)cc2c(=O)[nH]1` (centres undefined), for which the TGI is greater than 100 µM.
The same measure, in the same setting: the result for `COc1ccc([C@H]2CC(=O)C[C@H](c3ccc(OC)cc3OC)C23C(=O)c2ccccc2C3=O)c(OC)c1` reads greater than 100 µM.

For a further experiment, the system named is SNB-19 CNS. The experiment can be described thus: inhibition of tumour cell growth, NCI panel, 48 h.
As for `Cc1ccc(Nc2nc3ccccc3c(=O)n2N)cc1`, the TGI was greater than 100 µM.
The same measure, in the same setting: the result for `Nc1nc2ccc(NCc3ccc(C(=O)NC(CCC(=O)O)C(=O)O)cc3)cc2c(=O)[nH]1` (centres undefined) reads greater than 100 µM; that for `COc1ccc([C@H]2CC(=O)C[C@H](c3ccc(OC)cc3OC)C23C(=O)c2ccccc2C3=O)c(OC)c1`, greater than 100 µM.

For the next experiment, the system named is OVCAR-5 ovarian. The experiment in a line: inhibition of tumour cell growth, NCI panel, 48 h.
On to `Cc1ccc(Nc2nc3ccccc3c(=O)n2N)cc1`, for which the TGI was greater than 100 µM.
The same measure, in the same setting: the result for `Nc1nc2ccc(NCc3ccc(C(=O)NC(CCC(=O)O)C(=O)O)cc3)cc2c(=O)[nH]1` (centres undefined) reads greater than 100 µM; that for `COc1ccc([C@H]2CC(=O)C[C@H](c3ccc(OC)cc3OC)C23C(=O)c2ccccc2C3=O)c(OC)c1`, greater than 100 µM.

The subject of a further experiment is HCC-2998 colon. The experiment in a line: inhibition of tumour cell growth, NCI panel, 48 h.
For `Cc1ccc(Nc2nc3ccccc3c(=O)n2N)cc1`, the TGI was greater than 100 µM.
The same measure, in the same setting: the result for `Nc1nc2ccc(NCc3ccc(C(=O)NC(CCC(=O)O)C(=O)O)cc3)cc2c(=O)[nH]1` (centres undefined) reads greater than 100 µM.
On the same count and under the same terms, the result for `COc1ccc([C@H]2CC(=O)C[C@H](c3ccc(OC)cc3OC)C23C(=O)c2ccccc2C3=O)c(OC)c1` reads greater than 100 µM.

The test system of another experiment is OVCAR-3 ovarian. The experiment can be described thus: inhibition of tumour cell growth, NCI panel, 48 h.
`Cc1ccc(Nc2nc3ccccc3c(=O)n2N)cc1` gave a TGI greater than 100 µM.
On to `Nc1nc2ccc(NCc3ccc(C(=O)NC(CCC(=O)O)C(=O)O)cc3)cc2c(=O)[nH]1` (centres undefined), for which the TGI is greater than 100 µM.
Same read-out and setting: the result for `COc1ccc([C@H]2CC(=O)C[C@H](c3ccc(OC)cc3OC)C23C(=O)c2ccccc2C3=O)c(OC)c1` reads greater than 100 µM.

The subject of the next experiment is SNB-75 CNS. The experiment can be described thus: inhibition of tumour cell growth, NCI panel, 48 h.
On to `Cc1ccc(Nc2nc3ccccc3c(=O)n2N)cc1`, for which the TGI is greater than 100 µM.
On the same count and under the same terms, the result for `Nc1nc2ccc(NCc3ccc(C(=O)NC(CCC(=O)O)C(=O)O)cc3)cc2c(=O)[nH]1` (centres undefined) reads greater than 100 µM; that for `COc1ccc([C@H]2CC(=O)C[C@H](c3ccc(OC)cc3OC)C23C(=O)c2ccccc2C3=O)c(OC)c1`, greater than 100 µM.

For the next experiment, the system named is NCI-H460 lung. The experiment can be described thus: inhibition of tumour cell growth, NCI panel, 48 h.
For `Cc1ccc(Nc2nc3ccccc3c(=O)n2N)cc1`, the TGI was greater than 100 µM.
With `Nc1nc2ccc(NCc3ccc(C(=O)NC(CCC(=O)O)C(=O)O)cc3)cc2c(=O)[nH]1` (centres undefined), the TGI is greater than 100 µM.
On to `COc1ccc([C@H]2CC(=O)C[C@H](c3ccc(OC)cc3OC)C23C(=O)c2ccccc2C3=O)c(OC)c1`, for which the TGI is greater than 100 µM.

The subject of the next experiment is HCT-116 colon. The experiment can be described thus: inhibition of tumour cell growth, NCI panel, 48 h.
Turning to `Cc1ccc(Nc2nc3ccccc3c(=O)n2N)cc1`, the TGI is greater than 100 µM.
Same read-out and setting: the result for `Nc1nc2ccc(NCc3ccc(C(=O)NC(CCC(=O)O)C(=O)O)cc3)cc2c(=O)[nH]1` (centres undefined) reads greater than 100 µM; that for `COc1ccc([C@H]2CC(=O)C[C@H](c3ccc(OC)cc3OC)C23C(=O)c2ccccc2C3=O)c(OC)c1`, greater than 100 µM.

The next experiment relates to MDA-MB-231 breast. The experiment in a line: inhibition of tumour cell growth, NCI panel, 48 h.
In the case of `Cc1ccc(Nc2nc3ccccc3c(=O)n2N)cc1`, the TGI is greater than 100 µM.
Still for that read-out and setting: the result for `Nc1nc2ccc(NCc3ccc(C(=O)NC(CCC(=O)O)C(=O)O)cc3)cc2c(=O)[nH]1` (centres undefined) reads greater than 100 µM; that for `COc1ccc([C@H]2CC(=O)C[C@H](c3ccc(OC)cc3OC)C23C(=O)c2ccccc2C3=O)c(OC)c1`, greater than 100 µM.

The next experiment concerns UACC-257 melanoma. The experiment in a line: inhibition of tumour cell growth, NCI panel, 48 h.
Molecule `Cc1ccc(Nc2nc3ccccc3c(=O)n2N)cc1` showed a TGI greater than 100 µM.
On the same count and under the same terms, the result for `Nc1nc2ccc(NCc3ccc(C(=O)NC(CCC(=O)O)C(=O)O)cc3)cc2c(=O)[nH]1` (centres undefined) reads greater than 100 µM.
For the molecule `COc1ccc([C@H]2CC(=O)C[C@H](c3ccc(OC)cc3OC)C23C(=O)c2ccccc2C3=O)c(OC)c1`, the TGI was greater than 100 µM.

Another experiment concerns HCT-15 colon. The experiment in a line: inhibition of tumour cell growth, NCI panel, 48 h.
As for `Cc1ccc(Nc2nc3ccccc3c(=O)n2N)cc1`, the TGI was greater than 100 µM.
The same measure, in the same setting: the result for `Nc1nc2ccc(NCc3ccc(C(=O)NC(CCC(=O)O)C(=O)O)cc3)cc2c(=O)[nH]1` (centres undefined) reads greater than 100 µM; that for `COc1ccc([C@H]2CC(=O)C[C@H](c3ccc(OC)cc3OC)C23C(=O)c2ccccc2C3=O)c(OC)c1`, greater than 100 µM.

The test system of another experiment is SK-OV-3 ovarian. The experiment can be described thus: inhibition of tumour cell growth, NCI panel, 48 h.
As for `Cc1ccc(Nc2nc3ccccc3c(=O)n2N)cc1`, the TGI was greater than 100 µM.
In turn, `Nc1nc2ccc(NCc3ccc(C(=O)NC(CCC(=O)O)C(=O)O)cc3)cc2c(=O)[nH]1` (centres undefined) registered a TGI greater than 100 µM.
Same read-out and setting: the result for `COc1ccc([C@H]2CC(=O)C[C@H](c3ccc(OC)cc3OC)C23C(=O)c2ccccc2C3=O)c(OC)c1` reads greater than 100 µM.

In another experiment the test system is NCI-H226 lung. The experiment can be described thus: inhibition of tumour cell growth, NCI panel, 48 h.
As for `Cc1ccc(Nc2nc3ccccc3c(=O)n2N)cc1`, the TGI is greater than 100 µM.
The same measure, in the same setting: the result for `Nc1nc2ccc(NCc3ccc(C(=O)NC(CCC(=O)O)C(=O)O)cc3)cc2c(=O)[nH]1` (centres undefined) reads greater than 100 µM.
On the same count and under the same terms, the result for `COc1ccc([C@H]2CC(=O)C[C@H](c3ccc(OC)cc3OC)C23C(=O)c2ccccc2C3=O)c(OC)c1` reads greater than 100 µM.

The test system of a further experiment is MOLT-4 leukemia. The experiment in a line: inhibition of tumour cell growth, NCI panel, 48 h.
As for `Cc1ccc(Nc2nc3ccccc3c(=O)n2N)cc1`, the TGI is greater than 100 µM.
Same read-out and setting: the result for `Nc1nc2ccc(NCc3ccc(C(=O)NC(CCC(=O)O)C(=O)O)cc3)cc2c(=O)[nH]1` (centres undefined) reads greater than 100 µM; that for `COc1ccc([C@H]2CC(=O)C[C@H](c3ccc(OC)cc3OC)C23C(=O)c2ccccc2C3=O)c(OC)c1`, greater than 100 µM.

A further experiment has as its system HT29 colon. The experiment in a line: inhibition of tumour cell growth, NCI panel, 48 h.
As to `Cc1ccc(Nc2nc3ccccc3c(=O)n2N)cc1`, the TGI was greater than 100 µM.
Still for that read-out and setting: the result for `Nc1nc2ccc(NCc3ccc(C(=O)NC(CCC(=O)O)C(=O)O)cc3)cc2c(=O)[nH]1` (centres undefined) reads greater than 100 µM; that for `COc1ccc([C@H]2CC(=O)C[C@H](c3ccc(OC)cc3OC)C23C(=O)c2ccccc2C3=O)c(OC)c1`, greater than 100 µM.
